Experimental data reported in patent US8822444B2, “Hepatitis C virus inhibitors” (Bristol-Myers Squibb Company, priority 2009, dated 2014).

The compounds below were run on HCV 1b genotype (assay: HCV Replicon assay). Conditions: HCV 1b genotype replicon; read-out: 1b EC50 Range.
Format: cell-based
Method: An HCV Replicon assay was utilized in the present disclosure, and was prepared, conducted and validated as described in commonly owned PCT/US2006/022197 and in O'Boyle et. al. Antimicrob Agents Chemother. 2005 April; 49(4):1346-53. Assay methods incorporating luciferase reporters have also been used as described (Apath.com).
HCV-neo replicon cells and replicon cells containing mutations in the NS5A region were used to test the currently described family of compounds. The compounds were determined to have more than 10-fold less inhibitory activity on cells containing mutations than wild-type cells. Thus, the compounds of the present disclosure can be effective in inhibiting the function of the HCV NS5A protein and are understood to be as effective in combinations as previously described in application PCT/US2006/022197 and commonly owned WO/04014852. Further, the compounds of the present disclosure can be effective against the HCV 1b genotype. It should also be understood that the compounds of the present disclosure can inhibit multiple genotypes of HCV. […] In one embodiment, compounds of the present disclosure are inhibitory versus 1a, 1b, 2a, 2b, 3a, 4a, and 5a genotypes.
COC(=O)N[C@@H](C)C(=O)N1CCC[C@H]1c1nc(C2=CCC(C3CC=C(c4c[nH]c([C@@H]5CCCN5C(=O)[C@H](C)NC(=O)OC)n4)CC3)CC2)c[nH]1 (stereo partly drawn) [QC-2, methyl ((1S)-2-((2S)-2-(4-(4′-(2-((2S)-1-(N-(methoxycarbonyl)-L-alanyl)-2-pyrrolidinyl)-1H-imidazol-4-yl)-1,1′-bi(3-cyclohexen-1-yl)-4-yl)-1H-imidazol-2-yl)-1-pyrrolidinyl)-1-methyl-2-oxoethyl)carbamate] showed an EC50 of 4.57 to 99 nM. Compound CCN(CC)[C@@H](C(=O)N1CCC[C@H]1c1nc(C2=CCC(C3CC=C(c4c[nH]c([C@@H]5CCCN5C(=O)[C@@H](c5ccccc5)N(CC)CC)n4)CC3)CC2)c[nH]1)c1ccccc1 (stereo partly drawn) [QC-3, (1R,1′R)-2,2′-(1,1′-bi(3-cyclohexen-1-yl)-4,4′-diylbis(1H-imidazole-4,2-diyl(2S)-2,1-pyrrolidinediyl))bis(N,N-diethyl-2-oxo-1-phenylethanamine)] has an EC50 of 2 to 4.57 nM. For COC[C@H](NC(=O)OC)C(=O)N1CCC[C@H]1c1nc(C2=CCC(C3CC=C(c4c[nH]c([C@@H]5CCCN5C(=O)[C@H](COC)NC(=O)OC)n4)CC3)CC2)c[nH]1 (stereo partly drawn) [QC-4, methyl ((1S)-2-((2S)-2-(4-(4′-(2-((2S)-1-(N-(methoxycarbonyl)-O-methyl-L-seryl)-2-pyrrolidinyl)-1H-imidazol-4-yl)-1,1′-bi(3-cyclohexen-1-yl)-4-yl)-1H-imidazol-2-yl)-1-pyrrolidinyl)-1-(methoxymethyl)-2-oxoethyl)carbamate], the EC50 was 4.57 to 99 nM. For COC(=O)N[C@H](C(=O)N1CCC[C@H]1c1nc(C2=CCC(C3CC=C(c4c[nH]c([C@@H]5CCCN5C(=O)[C@@H](NC(=O)OC)[C@@H](C)OC)n4)CC3)CC2)c[nH]1)[C@@H](C)OC (stereo partly drawn) [QC-5, methyl ((1S,2R)-2-methoxy-1-(((2S)-2-(4-(4′-(2-((2S)-1-(N-(methoxycarbonyl)-O-methyl-L-threonyl)-2-pyrrolidinyl)-1H-imidazol-4-yl)-1,1′-bi(3-cyclohexen-1-yl)-4-yl)-1H-imidazol-2-yl)-1-pyrrolidinyl)carbonyl)propyl)carbamate], the EC50 was 2 to 4.57 nM.

Same assay, conditions: Hepatitis C virus; HCV 1b genotype replicon; read-out: 1b EC50 (in nM or range)
COC(=O)N[C@H](C(=O)N1CCC[C@H]1c1nc(C2=CCC(c3ccc(-c4c[nH]c([C@@H]5CCCN5C(=O)[C@@H](NC(=O)OC)C(C)C)n4)cc3)CC2)c[nH]1)C(C)C (mixture of isomers) [QC-9, methyl ((1S)-1-(((2S)-2-(4-(4-(4-(2-((2S)-1-((2S)-2-((methoxycarbonyl)amino)-3-methylbutanoyl)-2-pyrrolidinyl)-1H-imidazol-4-yl)phenyl)-1-cyclohexen-1-yl)-1H-imidazol-2-yl)-1-pyrrolidinyl)carbonyl)-2-methylpropyl)carbamate] gave an EC50 of 0.011 nM. Compound COC(=O)N[C@H](C(=O)N1CCC[C@H]1c1nc(-c2ccc(C34CCC(c5c[nH]c([C@@H]6CCCN6C(=O)[C@@H](NC(=O)OC)C(C)C)n5)(CC3)CC4)cc2)c[nH]1)C(C)C [Example M-1, methyl ((1S)-1-(((2S)-2-(4-(4-(4-(2-((2S)-1-((2S)-2-((methoxycarbonyl)amino)-3-methylbutanoyl)-2-pyrrolidinyl)-1H-imidazol-4-yl)phenyl)bicyclo[2.2.2]oct-1-yl)-1H-imidazol-2-yl)-1-pyrrolidinyl)carbonyl)-2-methylpropyl)carbamate] has an EC50 of 0.009 nM. Work on COC[C@H](NC(=O)OC)C(=O)N1CCC[C@H]1c1nc(C2CCC(C3CCC(c4c[nH]c([C@@H]5CCCN5C(=O)[C@H](COC)NC(=O)OC)n4)CC3)CC2)c[nH]1 (stereo partly drawn) [QC-7, methyl ((1S)-2-((2S)-2-(4-(4′-(2-((2S)-1-(N-(methoxycarbonyl)-O-methyl-L-seryl)-2-pyrrolidinyl)-1H-imidazol-4-yl)-1,1′-bi(cyclohexyl)-4-yl)-1H-imidazol-2-yl)-1-pyrrolidinyl)-1-(methoxymethyl)-2-oxoethyl)carbamate] yielded an EC50 of 17.1 nM.

Same assay, conditions: Hepatitis C virus; HCV 1b genotype replicon; read-out: 1b EC50 Range
Compound COC(=O)N[C@H](C(=O)N1CCC[C@H]1c1nc(C2=CCC(c3ccc(-c4c[nH]c([C@@H]5CCCN5C(=O)[C@@H](NC(=O)OC)C(C)C)n4)cc3)CC2)c[nH]1)C(C)C (mixture of isomers) [QC-9, methyl ((1S)-1-(((2S)-2-(4-(4-(4-(2-((2S)-1-((2S)-2-((methoxycarbonyl)amino)-3-methylbutanoyl)-2-pyrrolidinyl)-1H-imidazol-4-yl)phenyl)-1-cyclohexen-1-yl)-1H-imidazol-2-yl)-1-pyrrolidinyl)carbonyl)-2-methylpropyl)carbamate] has an EC50 of 2 to 4.57 nM. Work on COC(=O)N[C@H](C(=O)N1CCC[C@H]1c1nc(-c2ccc(C3CCC(c4c[nH]c([C@@H]5CCCN5C(=O)[C@@H](NC(=O)OC)C(C)C)n4)CC3)cc2)c[nH]1)C(C)C (single isomer, unassigned) [QC-16] yielded an EC50 of 2 to 4.57 nM. For COC(=O)N[C@H](C(=O)N1CCC[C@H]1c1nc(-c2ccc(C34CCC(c5c[nH]c([C@@H]6CCCN6C(=O)[C@@H](NC(=O)OC)C(C)C)n5)(CC3)CC4)cc2)c[nH]1)C(C)C [Example M-1, methyl ((1S)-1-(((2S)-2-(4-(4-(4-(2-((2S)-1-((2S)-2-((methoxycarbonyl)amino)-3-methylbutanoyl)-2-pyrrolidinyl)-1H-imidazol-4-yl)phenyl)bicyclo[2.2.2]oct-1-yl)-1H-imidazol-2-yl)-1-pyrrolidinyl)carbonyl)-2-methylpropyl)carbamate], the EC50 was 2 to 4.57 nM. For COC(=O)N[C@@H](C)C(=O)N1CCC[C@H]1c1nc(-c2ccc(C34CCC(c5c[nH]c([C@@H]6CCCN6C(=O)[C@H](C)NC(=O)OC)n5)(CC3)CC4)cc2)c[nH]1 [Example M-2, methyl ((1S)-2-((2S)-2-(4-(4-(4-(2-((2S)-1-(N-(methoxycarbonyl)-L-alanyl)-2-pyrrolidinyl)-1H-imidazol-4-yl)bicyclo[2.2.2]oct-1-yl)phenyl)-1H-imidazol-2-yl)-1-pyrrolidinyl)-1-methyl-2-oxoethyl)carbamate], the EC50 was 4.57 to 99 nM. With COC(=O)N[C@@H](C(=O)N1CCC[C@H]1c1nc(-c2ccc(C34CCC(c5c[nH]c([C@@H]6CCCN6C(=O)[C@H](NC(=O)OC)c6ccccc6)n5)(CC3)CC4)cc2)c[nH]1)c1ccccc1 [Example M-3, methyl ((1R)-2-((2S)-2-(4-(4-(4-(2-((2S)-1-((2R)-2-((methoxycarbonyl)amino)-2-phenylacetyl)-2-pyrrolidinyl)-1H-imidazol-4-yl)bicyclo[2.2.2]oct-1-yl)phenyl)-1H-imidazol-2-yl)-1-pyrrolidinyl)-2-oxo-1-phenylethyl)carbamate] the EC50 was 2 to 4.57 nM. For COC(=O)N[C@H](C(=O)N1CCC[C@H]1c1nc(-c2ccc(C34CCC(c5coc([C@@H]6CCCN6C(=O)[C@@H](NC(=O)OC)C(C)C)n5)(CC3)CC4)cc2)c[nH]1)C(C)C [Example M-4, methyl ((1S)-1-(((2S)-2-(4-(4-(4-(2-((2S)-1-((2S)-2-((methoxycarbonyl)amino)-3-methylbutanoyl)-2-pyrrolidinyl)-1H-imidazol-4-yl)phenyl)bicyclo[2.2.2]oct-1-yl)-1,3-oxazol-2-yl)-1-pyrrolidinyl)carbonyl)-2-methylpropyl)carbamate], the EC50 was 1000 to 10000 nM. With COC(=O)N[C@H](C(=O)N1[C@@H]2C[C@@H]2C[C@H]1c1ncc(-c2ccc(C34CCC(c5cnc([C@@H]6C[C@H]7C[C@H]7N6C(=O)[C@@H](NC(=O)OC)C(C)C)[nH]5)(CC3)CC4)cc2)[nH]1)C(C)C [Example M-5, methyl ((1S)-1-(((1R,3S,5R)-3-(5-(4-(4-(2-((1R,3S,5R)-2-((2S)-2-((methoxycarbonyl)amino)-3-methylbutanoyl)-2-azabicyclo[3.1.0]hex-3-yl)-1H-imidazol-5-yl)bicyclo[2.2.2]oct-1-yl)phenyl)-1H-imidazol-2-yl)-2-azabicyclo[3.1.0]hex-2-yl)carbonyl)-2-methylpropyl)carbamate] the EC50 was 2 to 4.57 nM. Work on CC[C@H](NC(=O)OC)C(=O)N1[C@@H]2C[C@@H]2C[C@H]1c1ncc(-c2ccc(C34CCC(c5cnc([C@@H]6C[C@H]7C[C@H]7N6C(=O)[C@H](CC)NC(=O)OC)[nH]5)(CC3)CC4)cc2)[nH]1 [Example M-6, methyl ((1S)-1-(((1R,3S,5R)-3-(5-(4-(4-(2-((1R,3S,5R)-2-((2S)-2-((methoxycarbonyl)amino)butanoyl)-2-azabicyclo[3.1.0]hex-3-yl)-1H-imidazol-5-yl)bicyclo[2.2.2]oct-1-yl)phenyl)-1H-imidazol-2-yl)-2-azabicyclo[3.1.0]hex-2-yl)carbonyl)propyl)carbamate] yielded an EC50 of 2 to 4.57 nM. COC(=O)N[C@@H](C(=O)N1[C@@H]2C[C@@H]2C[C@H]1c1ncc(-c2ccc(C34CCC(c5cnc([C@@H]6C[C@H]7C[C@H]7N6C(=O)[C@H](NC(=O)OC)c6ccccc6)[nH]5)(CC3)CC4)cc2)[nH]1)c1ccccc1 [Example M-7, methyl ((1R)-2-((1R,3S,5R)-3-(5-(4-(4-(2-((1R,3S,5R)-2-((2R)-2-((methoxycarbonyl)amino)-2-phenylacetyl)-2-azabicyclo[3.1.0]hex-3-yl)-1H-imidazol-5-yl)bicyclo[2.2.2]oct-1-yl)phenyl)-1H-imidazol-2-yl)-2-azabicyclo[3.1.0]hex-2-yl)-2-oxo-1-phenylethyl)carbamate] was tested, and the EC50 was 2 to 4.57 nM. With COC(=O)N[C@H](C(=O)N1[C@@H]2C[C@@H]2C[C@H]1c1nc(Cl)c(-c2ccc(C34CCC(c5[nH]c([C@@H]6C[C@H]7C[C@H]7N6C(=O)[C@@H](NC(=O)OC)C(C)C)nc5Cl)(CC3)CC4)cc2)[nH]1)C(C)C [Example M-8, methyl ((1S)-1-(((1R,3S,5R)-3-(4-chloro-5-(4-(4-(4-chloro-2-((1R,3S,5R)-2-((2S)-2-((methoxycarbonyl)amino)-3-methylbutanoyl)-2-azabicyclo[3.1.0]hex-3-yl)-1H-imidazol-5-yl)bicyclo[2.2.2]oct-1-yl)phenyl)-1H-imidazol-2-yl)-2-azabicyclo[3.1.0]hex-2-yl)carbonyl)-2-methylpropyl)carbamate] the EC50 was 2 to 4.57 nM. COC(=O)N[C@@H](C)C(=O)N1CCC[C@H]1c1nc(C2CCC(C3CCC(c4c[nH]c([C@@H]5CCCN5C(=O)[C@H](C)NC(=O)OC)n4)CC3)CC2)c[nH]1 (stereo partly drawn) [QC-6, methyl ((1S)-2-((2S)-2-(4-(4′-(2-((2S)-1-(N-(methoxycarbonyl)-L-alanyl)-2-pyrrolidinyl)-1H-imidazol-4-yl)-1,1′-bi(cyclohexyl)-4-yl)-1H-imidazol-2-yl)-1-pyrrolidinyl)-1-methyl-2-oxoethyl)carbamate] gave an EC50 of 100 to 999 nM. With COC[C@H](NC(=O)OC)C(=O)N1CCC[C@H]1c1nc(C2CCC(C3CCC(c4c[nH]c([C@@H]5CCCN5C(=O)[C@H](COC)NC(=O)OC)n4)CC3)CC2)c[nH]1 (stereo partly drawn) [QC-7, methyl ((1S)-2-((2S)-2-(4-(4′-(2-((2S)-1-(N-(methoxycarbonyl)-O-methyl-L-seryl)-2-pyrrolidinyl)-1H-imidazol-4-yl)-1,1′-bi(cyclohexyl)-4-yl)-1H-imidazol-2-yl)-1-pyrrolidinyl)-1-(methoxymethyl)-2-oxoethyl)carbamate] the EC50 was 1000 to 10000 nM.
